Reference: publication PMC12621175, “Scaffold Fusion and SAR Transfer with a Chemical Language Model Generates Novel Liver X Receptor Modulators” (Journal of Medicinal Chemistry, 2025)
Entries after “also recorded” stand apart in the source; their conditions may differ.

Tests used:
[1] = test system: LXR/retinoid X receptor (RXR) heterodimer; assay: full-length LXR assay (LXR-responsive ABCA1 reporter, endogenous LXR) in HEK293T and HepG2 cells; type: cell-based; details: 3 μM, vs 0.1% DMSO
Text: Intrigued by the initial data on LXR modulation, we further investigated the mode-of-action of designs 1-3. As the Gal4 hybrid reporter gene assay is artificial and overexpresses LXR, we next examined LXR modulation by 1-3 in a full-length LXR assay (Figure a) based on the endogenous expression of the LXR/retinoid X receptor (RXR) heterodimer (Figure S2). Upon activation, LXR binds to response elements within the ATP-binding cassette transporter A1 (ABCA1, an LXR target gene) promoter of the reporter. […] The designs were next checked for antiproliferative effects that may compromise further in vitro characterization. […] Therefore, and due to the weak efficacy of 2, we focused further biological characterization on 1 and 3.
For the hybrid reporter gene assays, the previously reported Gal4-fusion receptor plasmids pFA-CMV-hRORα-LBD, pFA-CMV-hRORβ-LBD, pFA-CMV-hRORγ-LBD, pFA-CMV-hLXRα-LBD, pFA-CMV-hLXRβ-LBD, pFA-CMV-hFXR-LBD, pFA-CMV-hPXR-LBD, and pFA-CMV-hRXRα-LBD, coding for the hinge region, and LBD of the canonical isoform of the respective nuclear receptor were used. pFR-Luc (Stratagene) was used as the reporter plasmid, and pRL-SV40 (Promega) was used in all assays for the normalization of transfection efficiency and cell growth. pECE-SV40-Gal4-VP16 was a gift from Lea Sistonen (Addgene plasmid #71728). The LXR-responsive reporter ABCA1-pGL3 was used for the full-length reporter gene assay.
The day before transfection, HEK293T cells were seeded in 96-well plates (4 × 10^4 cells/well). Before transfection, the medium was changed to Opti-MEM without any supplements. […] Luminescence was measured with a Spark 10 M luminometer (Tecan Deutschland GmbH). […] EC50/IC50 values and the standard errors thereof were calculated with the mean fold activation values by OriginPro, Version 2025 (OriginLab Corporation, Northampton, MA, USA), fitting a dose–response curve with a variable Hill slope (Levenberg–Marquardt algorithm). […]

[2] = biological target: T1, LXRα (Homo sapiens, UniProt Q13133); assay: Gal4-LXRα hybrid reporter gene assay; type: cell-based
T1 construct: coding for the hinge region, and LBD of the canonical isoform of the respective nuclear receptor; expressed in transfected cells; host or cells: HEK293T
T1 sequence (Q13133 209-447 limits assumed): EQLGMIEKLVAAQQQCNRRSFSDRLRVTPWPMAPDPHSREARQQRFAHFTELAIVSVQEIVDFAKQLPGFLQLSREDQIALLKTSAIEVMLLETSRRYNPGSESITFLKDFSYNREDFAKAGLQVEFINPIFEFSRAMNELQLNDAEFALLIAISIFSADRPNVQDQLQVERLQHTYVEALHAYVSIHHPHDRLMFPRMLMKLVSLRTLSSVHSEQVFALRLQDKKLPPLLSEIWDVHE
Method: (§1) The LXR-responsive reporter ABCA1-pGL3 was used for the full-length reporter gene assay.
(§2) The day before transfection, HEK293T cells were seeded in 96-well plates (4 × 10^4 cells/well). Before transfection, the medium was changed to Opti-MEM without any supplements. Transient transfection was carried out using Lipofectamine LTX reagent (Invitrogen) according to the manufacturer’s protocol with (a) pFR-Luc (Stratagene), pRL-SV40 (Promega), and the corresponding Gal4-fusion nuclear receptor plasmid or (b) the LXR-responsive reporter ABCA1-pGL3 and pRL-SV40 (Promega). […] Each concentration was tested in duplicate, and each experiment was repeated in at least three biologically independent repeats. […] Luminescence was measured with a Spark 10 M luminometer (Tecan Deutschland GmbH). Normalization of transfection efficiency and cell growth was done by division of firefly luciferase data by renilla luciferase data multiplied by 1000, resulting in relative light units (RLU). Fold activation was obtained by dividing the mean RLU of the tested compound at a respective concentration by the mean RLU of the untreated 0.1% DMSO control. […] Separate control experiments to exclude nonspecific reporter gene activation or VP16-mediated effects were performed following the same procedure in the absence of a nuclear receptor expression plasmid (pFR-Luc, pRL-SV40, and pECE-SV40-Gal4-VP16 only).

[3] = test system: HepG2 cells; assay: resazurin-based proliferation assay, HepG2; type: cell-based; details: 10 μM
Method: (§3) HepG2 or HEK293T cells were seeded in 96-well plates (4 × 10^4 cells per well). […] After 4, 14, and 24 h, the medium was aspirated, and the cells were incubated with 100 μM resazurin solution in Opti-MEM (prepared from a 0.15 mg/mL resazurin stock in DPBS) for 60 min. The metabolic activity was assessed by conversion of resazurin to resorufin, which was quantified by measuring absorbance at 570 nm and a reference wavelength of 600 nm. The cell count was calculated from a calibration curve with 0–10^5 cells per well in steps of 2 × 10^4.

[4] = biological target: T2, LXRβ (Homo sapiens, UniProt P55055); assay: Gal4-LXRβ hybrid reporter gene assay; type: cell-based; details: classification agonist; read-out: LXRb pEC50/pIC50 (converted)
T2 construct: coding for the hinge region, and LBD of the canonical isoform of the respective nuclear receptor; expressed in transfected cells; host or cells: HEK293T
T2 sequence (P55055 222-460 limits assumed): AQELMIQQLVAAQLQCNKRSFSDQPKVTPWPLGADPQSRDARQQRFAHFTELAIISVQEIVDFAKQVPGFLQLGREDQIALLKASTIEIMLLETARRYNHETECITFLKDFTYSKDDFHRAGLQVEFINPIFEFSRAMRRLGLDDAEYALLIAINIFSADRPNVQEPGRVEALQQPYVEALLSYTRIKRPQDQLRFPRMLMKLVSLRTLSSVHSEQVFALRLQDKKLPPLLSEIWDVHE
Method: as §1, §2

[5] = test system: HEK293T cells; assay: resazurin-based proliferation assay, HEK293T; type: cell-based; details: 10 μM
Method: as §3

[6] = test system: SREBP1c; assay: qPCR of LXR-regulated mRNA expression in HepG2: SREBP1c; type: cell-based, human; details: 1 μM, HepG2, 24 h
[7] = test system: APOE; assay: qPCR of LXR-regulated mRNA expression in HepG2: APOE; type: cell-based, human; details: 1 μM, HepG2, 24 h
[8] = test system: ABCA1; assay: qPCR of LXR-regulated mRNA expression in HepG2: ABCA1; type: cell-based, human; details: 1 μM, HepG2, 24 h

Row | Structure (SMILES) | LXR modulation in LXR-responsive ABCA1 reporter gene assay [1] | classification ([2]; applies to LXRa and LXRb) | LXR modulation in Gal4 hybrid reporter gene assays (mode of action) ([2]; both LXR subtypes (LXRα and LXRβ)) | EC50 ([2]; classification agonist, read-out: LXRa pEC50/pIC50 (converted)) | antiproliferative effect [3] | EC50 [4] | antiproliferative effect [5] | SREBP1c mRNA expression [6] | SREBP1c mRNA expression ([6]; listed as T090) | APOE mRNA expression [7] | APOE mRNA expression ([7]; listed as T090) | ABCA1 mRNA expression [8] | ABCA1 mRNA expression ([8]; listed as T090)
1 | CS(=O)(=O)c1cccc(N2CCN(c3ccc(Cl)c(C(F)(F)F)c3)CC2)c1 [Compound 2, 1-(4-Chloro-3-[trifluoromethyl]phenyl)-4-(3-[methylsulfonyl]phenyl)piperazine] | partial LXR agonists; also recorded: partial LXR agonism | agonist | partial agonists | > 3.16 µM | did not inhibit the proliferation | > 3.16 µM | did not inhibit the proliferation; also recorded: slightly reduced growth rate | – | – | – | – | – | –
2 | O=S(=O)(c1ccccc1)N(CC(F)(F)F)c1ccc(C(O)(C(F)(F)F)C(F)(F)F)cc1 [Compound T0901317, reference compound] | – | – | – | – | – | – | – | induced mRNA expression | induced | induced mRNA expression | induced | induced mRNA expression | induced
